We go through 29 compounds from US9776995B2, “Bicyclic sulfonamide compounds as sodium channel inhibitors” (AMGEN INC., priority 2013, dated 2017).

In general, IC50 refers to the concentration needed to halve the response being measured.

Like-named read-outs stand apart in the source and are kept apart here. A value given as a limit tells only on which side of the number the result lay.

The target in series [1] is Nav 1.7 (Homo sapiens (Human), UniProt Q15858). In words: in-vitro Nav 1.7 PX data. In kind it is cell-based.
The target of series [2] is Nav 1.5 (Homo sapiens (Human), UniProt Q14524). In words: in-vitro Nav 1.5 PX data. To be noted: read-out: Nav 1.5 PX IC50.
Chain of Nav 1.5 (Q14524 whole entry): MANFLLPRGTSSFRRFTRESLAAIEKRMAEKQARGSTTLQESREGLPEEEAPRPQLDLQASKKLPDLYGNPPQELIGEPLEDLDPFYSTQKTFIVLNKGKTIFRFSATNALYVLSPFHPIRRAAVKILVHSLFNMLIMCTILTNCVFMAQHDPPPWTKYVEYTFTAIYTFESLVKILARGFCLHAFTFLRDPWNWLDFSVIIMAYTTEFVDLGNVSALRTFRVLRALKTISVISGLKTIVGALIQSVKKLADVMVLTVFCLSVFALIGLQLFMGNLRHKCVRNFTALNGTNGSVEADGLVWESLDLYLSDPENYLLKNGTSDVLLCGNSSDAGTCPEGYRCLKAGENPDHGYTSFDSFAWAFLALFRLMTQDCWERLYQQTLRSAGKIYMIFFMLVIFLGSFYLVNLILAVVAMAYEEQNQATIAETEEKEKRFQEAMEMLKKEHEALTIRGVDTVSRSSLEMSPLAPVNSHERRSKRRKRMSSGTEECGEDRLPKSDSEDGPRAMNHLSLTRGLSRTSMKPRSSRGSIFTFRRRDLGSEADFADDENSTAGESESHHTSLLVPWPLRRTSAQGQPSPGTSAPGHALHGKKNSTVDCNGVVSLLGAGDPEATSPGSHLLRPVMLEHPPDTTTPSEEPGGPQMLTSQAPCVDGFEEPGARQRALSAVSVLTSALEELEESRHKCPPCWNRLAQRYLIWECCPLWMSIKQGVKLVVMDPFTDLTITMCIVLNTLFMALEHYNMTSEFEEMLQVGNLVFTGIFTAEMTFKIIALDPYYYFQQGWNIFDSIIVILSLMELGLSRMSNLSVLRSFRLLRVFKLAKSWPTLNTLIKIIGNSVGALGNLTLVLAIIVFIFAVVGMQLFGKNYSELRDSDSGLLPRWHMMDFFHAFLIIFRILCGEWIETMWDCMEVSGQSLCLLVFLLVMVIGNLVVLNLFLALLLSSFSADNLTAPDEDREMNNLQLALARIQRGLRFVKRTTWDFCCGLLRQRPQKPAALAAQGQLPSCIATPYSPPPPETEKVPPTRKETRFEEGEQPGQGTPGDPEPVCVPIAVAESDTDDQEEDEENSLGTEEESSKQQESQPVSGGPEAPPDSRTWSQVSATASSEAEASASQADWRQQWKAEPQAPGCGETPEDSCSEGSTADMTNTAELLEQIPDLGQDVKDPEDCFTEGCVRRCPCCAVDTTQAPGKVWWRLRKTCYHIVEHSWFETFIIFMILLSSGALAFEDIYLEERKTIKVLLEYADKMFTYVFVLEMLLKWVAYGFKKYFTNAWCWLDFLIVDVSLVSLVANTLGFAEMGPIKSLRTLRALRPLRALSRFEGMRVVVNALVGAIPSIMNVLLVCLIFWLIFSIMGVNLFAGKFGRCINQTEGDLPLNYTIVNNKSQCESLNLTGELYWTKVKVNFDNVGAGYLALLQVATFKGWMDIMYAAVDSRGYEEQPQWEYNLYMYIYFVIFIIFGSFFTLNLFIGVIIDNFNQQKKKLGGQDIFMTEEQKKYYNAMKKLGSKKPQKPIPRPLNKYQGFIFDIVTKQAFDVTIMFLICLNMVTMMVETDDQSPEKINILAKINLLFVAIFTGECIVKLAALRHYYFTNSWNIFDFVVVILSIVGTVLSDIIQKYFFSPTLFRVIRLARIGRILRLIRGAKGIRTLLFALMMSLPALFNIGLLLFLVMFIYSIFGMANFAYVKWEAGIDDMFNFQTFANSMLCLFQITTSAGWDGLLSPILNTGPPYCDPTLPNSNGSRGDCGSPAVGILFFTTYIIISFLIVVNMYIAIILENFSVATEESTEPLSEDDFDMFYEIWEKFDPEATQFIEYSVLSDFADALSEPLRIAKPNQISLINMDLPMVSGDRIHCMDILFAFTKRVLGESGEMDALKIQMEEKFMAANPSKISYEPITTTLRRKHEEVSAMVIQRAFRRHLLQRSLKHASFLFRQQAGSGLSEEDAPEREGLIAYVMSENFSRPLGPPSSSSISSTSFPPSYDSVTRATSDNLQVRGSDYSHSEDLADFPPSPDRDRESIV

Chain of Nav 1.7 (Q15858 whole entry): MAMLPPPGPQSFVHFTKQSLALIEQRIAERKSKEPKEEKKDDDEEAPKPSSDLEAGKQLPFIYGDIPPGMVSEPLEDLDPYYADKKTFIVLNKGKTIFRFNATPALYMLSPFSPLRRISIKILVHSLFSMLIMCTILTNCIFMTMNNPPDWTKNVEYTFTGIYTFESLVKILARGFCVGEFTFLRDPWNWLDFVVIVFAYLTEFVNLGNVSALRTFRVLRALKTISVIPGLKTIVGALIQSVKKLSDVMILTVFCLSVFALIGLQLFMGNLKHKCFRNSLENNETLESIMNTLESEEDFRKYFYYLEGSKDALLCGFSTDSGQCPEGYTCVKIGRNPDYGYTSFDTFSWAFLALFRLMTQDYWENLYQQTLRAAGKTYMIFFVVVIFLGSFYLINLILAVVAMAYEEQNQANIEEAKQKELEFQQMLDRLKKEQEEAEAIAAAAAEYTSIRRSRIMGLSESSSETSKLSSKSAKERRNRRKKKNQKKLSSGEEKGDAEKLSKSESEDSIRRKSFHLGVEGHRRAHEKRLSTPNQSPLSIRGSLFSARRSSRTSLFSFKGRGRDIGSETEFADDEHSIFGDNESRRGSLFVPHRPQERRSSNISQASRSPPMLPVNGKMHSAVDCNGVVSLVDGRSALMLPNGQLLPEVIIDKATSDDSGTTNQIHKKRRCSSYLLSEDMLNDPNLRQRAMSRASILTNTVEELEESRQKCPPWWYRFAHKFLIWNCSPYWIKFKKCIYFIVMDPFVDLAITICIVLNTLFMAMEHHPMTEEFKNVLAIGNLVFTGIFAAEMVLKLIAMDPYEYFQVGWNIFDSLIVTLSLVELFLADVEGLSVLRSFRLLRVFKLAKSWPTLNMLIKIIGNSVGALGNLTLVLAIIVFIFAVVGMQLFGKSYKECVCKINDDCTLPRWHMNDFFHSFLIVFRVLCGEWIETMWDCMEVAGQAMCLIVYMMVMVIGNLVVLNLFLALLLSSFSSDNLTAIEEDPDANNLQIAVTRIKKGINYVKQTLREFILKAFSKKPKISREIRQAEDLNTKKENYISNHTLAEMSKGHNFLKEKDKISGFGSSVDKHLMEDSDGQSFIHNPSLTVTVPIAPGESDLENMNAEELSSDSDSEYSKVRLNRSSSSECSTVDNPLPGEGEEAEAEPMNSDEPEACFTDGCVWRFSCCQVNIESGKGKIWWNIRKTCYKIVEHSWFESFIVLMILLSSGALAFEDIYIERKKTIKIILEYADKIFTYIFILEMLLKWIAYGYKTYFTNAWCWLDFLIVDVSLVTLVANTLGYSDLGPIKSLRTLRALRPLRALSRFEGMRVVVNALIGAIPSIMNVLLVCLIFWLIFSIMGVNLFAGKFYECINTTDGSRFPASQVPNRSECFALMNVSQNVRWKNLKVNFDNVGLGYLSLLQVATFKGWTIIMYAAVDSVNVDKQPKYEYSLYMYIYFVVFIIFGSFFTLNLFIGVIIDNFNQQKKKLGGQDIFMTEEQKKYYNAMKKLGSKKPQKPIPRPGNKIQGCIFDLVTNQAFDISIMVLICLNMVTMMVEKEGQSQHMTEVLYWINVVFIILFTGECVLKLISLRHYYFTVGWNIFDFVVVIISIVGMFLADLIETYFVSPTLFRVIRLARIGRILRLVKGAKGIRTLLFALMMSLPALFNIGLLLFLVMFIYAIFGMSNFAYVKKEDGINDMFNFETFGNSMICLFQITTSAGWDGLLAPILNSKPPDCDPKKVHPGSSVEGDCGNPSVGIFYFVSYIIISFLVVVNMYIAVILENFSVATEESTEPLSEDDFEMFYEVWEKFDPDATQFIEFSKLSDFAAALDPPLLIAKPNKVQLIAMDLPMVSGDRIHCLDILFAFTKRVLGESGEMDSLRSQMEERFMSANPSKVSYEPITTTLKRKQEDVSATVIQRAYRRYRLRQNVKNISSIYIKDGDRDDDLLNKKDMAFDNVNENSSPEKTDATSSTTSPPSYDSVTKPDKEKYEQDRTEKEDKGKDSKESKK

Turning to `O=S(=O)(Nc1ccon1)c1ccc2c(-c3ccc(-c4cccc(C(F)(F)F)c4)cc3CO)nccc2c1` [Example 146, 1-(3-(hydroxymethyl)-3′-(trifluoromethyl)-4-biphenylyl)-N-3-isoxazolyl-6-isoquinolinesulfonamide], the IC50 in series [1] (in-vitro Nav 1.7 PX data) is 120 nM; in series [2] (in-vitro Nav 1.5 PX data), > 10000 nM.

Consider `COc1cc(-c2cccc(F)c2)c(Cl)cc1-c1nn(C)c(=O)c2cc(S(=O)(=O)Nc3ccon3)ccc12` [Example 21, 1-(2-CHLORO-3′-FLUORO-5-METHOXY-[1,1′-BIPHENYL]-4-YL)-N-(ISOXAZOL-3-YL)-3-METHYL-4-OXO-3,4-DIHYDROPHTHALAZINE-6-SULFONAMIDE], for which the IC50 in series [1] is 42.4 nM; in series [2] (in-vitro PX), > 10000 nM.

As for `COc1cc(-c2cc(F)cc(F)c2)ccc1-c1nccc2cc(S(=O)(=O)Nc3ccon3)ccc12` [Example 142, 1-(3′,5′-difluoro-3-methoxy-4-biphenylyl)-N-3-isoxazolyl-6-isoquinolinesulfonamide], the IC50 in series [1] (in-vitro Nav 1.7 PX data) is 168 nM; in series [2] (in-vitro Nav 1.5 PX data) it was > 30000 nM.

For the compound `COc1cc(-c2ccc(C)c(Cl)c2)c(C#N)cc1-c1nccc2cc(S(=O)(=O)Nc3ccon3)ccc12` [Example 78, 1-(3′-chloro-2-cyano-5-methoxy-4′-methyl-4-biphenylyl)-N-3-isoxazolyl-6-isoquinolinesulfonamide], the IC50 in series [1] (PatchXpress (PX), in vitro) is 33 nM; in series [2] (PatchXpress (PX), in vitro), > 10000 nM.

Regarding “1-(3′-chloro-2-cyano-5-methoxy-5′-methyl-4-biphenylyl)-N-1,3,4-thiadiazol-2-yl-6-isoquinolinesulfonamide [Example 225]”, the IC50 in series [1] (in-vitro PX) was 11.1 nM; in series [2] (in-vitro PX), > 10000 nM.

In the case of `COc1cc(-c2ccc(F)cc2)c(C#N)cc1-c1nccc2cc(S(=O)(=O)Nc3ccncn3)ccc12` [Example 186, 1-(2-cyano-4′-fluoro-5-methoxy-4-biphenylyl)-N-4-pyrimidinyl-6-isoquinolinesulfonamide], the results for the IC50 in series [1] (in-vitro PX (PatchXpress) data) and in series [2] (in-vitro PX (PatchXpress) data) were 150 nM and > 10000 nM, respectively.

As to `COc1cc(-c2cc(F)cnc2OC)c(C#N)cc1-c1ncnc2cc(S(=O)(=O)Nc3ccon3)ccc12` [Example 201, 4-(5-cyano-4-(5-fluoro-2-methoxy-3-pyridinyl)-2-methoxyphenyl)-N-3-isoxazolyl-7-quinazolinesulfonamide], the IC50 is 424 nM in series [1] (in-vitro PX (PatchXpress) data) and > 10000 nM in series [2] (in-vitro PX (PatchXpress) data).

Consider `COc1cc(-c2cc(C)cc(F)c2)c(C#N)cc1-c1nccc2cc(S(=O)(=O)Nc3ccon3)ccc12` [Example 77, 1-(2-cyano-3′-fluoro-5-methoxy-5′-methyl-4-biphenylyl)-N-3-isoxazolyl-6-isoquinolinesulfonamide], for which the 50% inhibitory concentration (IC50) is 72.5 nM in series [1] (PatchXpress (PX), in vitro) and > 10000 nM in series [2] (PatchXpress (PX), in vitro).

Take `COc1nc(OCC2CCCCC2)ccc1-c1nccc2cc(S(=O)(=O)Nc3ccncn3)ccc12` [Example 66, 1-(6-(cyclohexylmethoxy)-2-methoxy-3-pyridinyl)-N-4-pyrimidinyl-6-isoquinolinesulfonamide]: the IC50 was 349 nM in series [1] (PatchXpress (PX), in vitro) and > 10000 nM in series [2] (PatchXpress (PX), in vitro).

As to `COc1nc(N2CC(F)(F)C2)c(Cl)cc1-c1nccc2cc(S(=O)(=O)Nc3nncs3)ccc12` [Example 236, 1-(5-chloro-6-(3,3-difluoro-1-azetidinyl)-2-methoxy-3-pyridinyl)-N-1,3,4-thiadiazol-2-yl-6-isoquinolinesulfonamide], the 50% inhibitory concentration (IC50) in series [1] (in-vitro PX) was 382 nM; in series [2] (in-vitro PX) it was > 30000 nM.

On to `COc1cc(-c2ccc(F)cc2)c(C#N)cc1-c1nccc2cc(S(=O)(=O)Nc3ccon3)ccc12` [Example 106, 1-(2-cyano-4′-fluoro-5-methoxy-4-biphenylyl)-N-3-isoxazolyl-6-isoquinolinesulfonamide], for which the IC50 was 62.5 nM in series [1] (in-vitro PX data) and > 10000 nM in series [2] (in-vitro PX data).

On to `COc1cc(Oc2cccc(C)c2)ccc1-c1nccc2cc(S(=O)(=O)Nc3ccncn3)ccc12` [Example 181, 1-(2-methoxy-4-(3-methylphenoxy)phenyl)-N-4-pyrimidinyl-6-isoquinolinesulfonamide], for which the IC50 in series [1] (in-vitro PX (PatchXpress) data) is 126 nM; in series [2] (in-vitro PX (PatchXpress) data), > 10000 nM.

For `COc1cc(-c2cc(C)cnc2OC)ccc1-c1nccc2cc(S(=O)(=O)Nc3nncs3)ccc12` [Example 188, 1-(2-methoxy-4-(2-methoxy-5-methyl-3-pyridinyl)phenyl)-N-1,3,4-thiadiazol-2-yl-6-isoquinolinesulfonamide], the IC50 in series [1] (in-vitro PX (PatchXpress) data) is 215 nM; in series [2] (in-vitro PX (PatchXpress) data), > 30000 nM.

Regarding `COc1ccc(Oc2ccc(-c3nccc4cc(S(=O)(=O)Nc5ccncn5)ccc34)c(OC)c2)cc1` [Example 182, 1-(2-methoxy-4-(4-methoxyphenoxy)phenyl)-N-4-pyrimidinyl-6-isoquinolinesulfonamide], the IC50 in series [1] (in-vitro PX (PatchXpress) data) was 305 nM; in series [2] (in-vitro PX (PatchXpress) data) it was > 10000 nM.

Consider `COc1cc(-c2cccc(C(F)(F)F)c2)c(C#N)cc1-c1ncnc2cc(S(=O)(=O)Nc3ccon3)ccc12` [Example 211, 4-(2-cyano-5-methoxy-3′-(trifluoromethyl)-4-biphenylyl)-N-3-isoxazolyl-7-quinazolinesulfonamide], for which the IC50 is 16.9 nM in series [1] (in-vitro PX) and > 10000 nM in series [2] (in-vitro PX).

In the case of `COc1cc(-c2cccc(F)c2)c(Cl)cc1-c1nncc2cc(S(=O)(=O)Nc3nncs3)ccc12` [Example 9, 1-(2-CHLORO-3′-FLUORO-5-METHOXY-[1,1′-BIPHENYL]-4-YL)-N-(1,3,4-THIADIAZOL-2-YL)PHTHALAZINE-6-SULFONAMIDE], the IC50 in series [1] (in-vitro PX data) was 112 nM; in series [2] (in-vitro PX data) it was > 10000 nM.

Take `COc1cc(-c2cccc(C)c2)c(C#N)cc1-c1nccc2cc(S(=O)(=O)Nc3ccon3)ccc12` [Example 112, 1-(2-cyano-5-methoxy-3′-methyl-4-biphenylyl)-N-3-isoxazolyl-6-isoquinolinesulfonamide]: the IC50 in series [1] (in-vitro PX data) is 39.5 nM; in series [2] (in-vitro PX data), > 10000 nM.

Turning to `COc1ccc(F)cc1-c1cc(OC)c(-c2nccc3cc(S(=O)(=O)Nc4ccncn4)ccc23)cc1C#N` [Example 162, 1-(2-cyano-5′-fluoro-2′,5-dimethoxy-4-biphenylyl)-N-4-pyrimidinyl-6-isoquinolinesulfonamide], the IC50 in series [1] (in-vitro Nav 1.7 PX data) was 470 nM; in series [2] (in-vitro Nav 1.5 PX data), > 10000 nM.

As for `COc1cc(-c2cccc(C(F)(F)F)c2)ccc1-c1nccc2cc(S(=O)(=O)Nc3ccon3)ccc12` [Example 6, N-(ISOXAZOL-3-YL)-1-(3-METHOXY-3′-(TRIFLUOROMETHYL)-[1,1′-BIPHENYL]-4-YL)ISOQUINOLINE-6-SULFONAMIDE], the IC50 is 78.9 nM in series [1] and > 10000 nM in series [2] (in-vitro PX data).

Turning to `COc1cc(-c2ccc(F)c(F)c2)c(C)cc1-c1ncnc2cc(S(=O)(=O)Nc3ccon3)ccc12` [Example 199, 4-(3′,4′-difluoro-5-methoxy-2-methyl-4-biphenylyl)-N-3-isoxazolyl-7-quinazolinesulfonamide], the 50% inhibitory concentration (IC50) was 36 nM in series [1] (in-vitro PX (PatchXpress) data) and > 10000 nM in series [2] (in-vitro PX (PatchXpress) data).

In the case of `COc1cc(-c2cccc(F)c2)c(Cl)cc1-c1ncc(O)c2cc(S(=O)(=O)Nc3ccon3)ccc12` [Example 17, 1-(2-CHLORO-3′-FLUORO-5-METHOXY-[1,1′-BIPHENYL]-4-YL)-4-HYDROXY-N-(ISOXAZOL-3-YL)ISOQUINOLINE-6-SULFONAMIDE], the results for the IC50 in series [1] (in-vitro PX) and in series [2] (in-vitro PX) were 85.1 nM and > 10000 nM, respectively.

In the case of `COc1cc(Oc2cc(F)ccc2F)ccc1-c1nccc2cc(S(=O)(=O)Nc3nncs3)ccc12` [Example 187, 1-(4-(2,5-difluorophenoxy)-2-methoxyphenyl)-N-1,3,4-thiadiazol-2-yl-6-isoquinolinesulfonamide], the IC50 in series [1] (in-vitro PX (PatchXpress) data) is 99.4 nM; in series [2] (in-vitro PX (PatchXpress) data), > 10000 nM.

As to `COc1cc(-c2cccc(C)c2)c(C#N)cc1-c1nccc2cc(S(=O)(=O)Nc3ccncn3)ccc12` [Example 156, 1-(2-cyano-5-methoxy-3′-methyl-4-biphenylyl)-N-4-pyrimidinyl-6-isoquinolinesulfonamide], the IC50 stood at 47.3 nM in series [1] (in-vitro Nav 1.7 PX data) and 30800 nM in series [2] (in-vitro Nav 1.5 PX data).

Turning to `COc1cc(-c2cccc(C)c2)c(C#N)cc1-c1nccc2cc(S(=O)(=O)Nc3nncs3)ccc12` [Example 217, 1-(2-cyano-5-methoxy-3′-methyl-4-biphenylyl)-N-1,3,4-thiadiazol-2-yl-6-isoquinolinesulfonamide], the IC50 was 22.3 nM in series [1] (in-vitro PX) and > 10000 nM in series [2] (in-vitro PX).

As for `COc1cc(-c2cc(C)cc(Cl)c2)c(C#N)cc1-c1nccc2cc(S(=O)(=O)Nc3ccncn3)ccc12` [Example 160, 1-(3′-chloro-2-cyano-5-methoxy-5′-methyl-4-biphenylyl)-N-4-pyrimidinyl-6-isoquinolinesulfonamide], the results for the IC50 in series [1] (in-vitro Nav 1.7 PX data) and in series [2] (in-vitro Nav 1.5 PX data) were 13.8 nM and 18300 nM, respectively.

For `COc1cc(-c2cccc(F)c2)c(Cl)cc1-c1ncc(C#N)c2cc(S(=O)(=O)Nc3ccon3)ccc12` [Example 27, 1-(2-CHLORO-3′-FLUORO-5-METHOXY-[1,1′-BIPHENYL]-4-YL)-4-CYANO-N-(ISOXAZOL-3-YL)ISOQUINOLINE-6-SULFONAMIDE], the IC50 was 282 nM in series [1] and > 10000 nM in series [2] (in-vitro PX).

`COc1cc(-c2ccc(F)c(C)c2)c(C#N)cc1-c1nccc2cc(S(=O)(=O)Nc3ccncn3)ccc12` [Example 155, 1-(2-cyano-4′-fluoro-5-methoxy-3′-methyl-4-biphenylyl)-N-4-pyrimidinyl-6-isoquinolinesulfonamide]: the results for the concentration for half-maximal inhibition (IC50) in series [1] (in-vitro Nav 1.7 PX data) and in series [2] (in-vitro Nav 1.5 PX data) were 45.5 nM and 23400 nM, respectively.

As for `COc1cc(Cl)c(-c2cccc(F)c2)cc1-c1nccc2cc(S(=O)(=O)Nc3nncs3)ccc12` [Example 110, 1-(6-chloro-3′-fluoro-4-methoxy-3-biphenylyl)-N-1,3,4-thiadiazol-2-yl-6-isoquinolinesulfonamide], the IC50 was 109 nM in series [1] (in-vitro PX data) and > 10000 nM in series [2] (in-vitro PX data).

`COc1cc(-c2ccc(F)c(C)c2)c(C#N)cc1-c1nccc2cc(S(=O)(=O)Nc3ccon3)ccc12` [Example 85, 1-(2-cyano-4′-fluoro-5-methoxy-3′-methyl-4-biphenylyl)-N-3-isoxazolyl-6-isoquinolinesulfonamide]: the IC50 in series [1] (PatchXpress (PX), in vitro) is 28.8 nM; in series [2] (PatchXpress (PX), in vitro) it was > 10000 nM.
